Values of other authors in patent US20260344672A1, “CROP ENHANCEMENT” (SYNGENTA CROP PROTECTION AG, priority 2023, published 2026).

Tested on: plant
Conditions: reported in the literature

Compound	early flowering and grain maturation	leaf area and plant height	photosynthetic capacity (plant greenness)	root system and root hair development	tiller number and productivity	plant health, tolerance to environmental stresses
N#Cc1nn(-c2c(Cl)cc(C(F)(F)F)cc2Cl)c(N)c1[S+]([O-])C(F)(F)F (stereo not drawn) [fipronil]	stimulate early flowering and grain maturation	increase leaf area and plant height	increase photosynthetic capacity (plant greenness)	enhance overall root system and root hair development	increase tiller number and productivity	
COC(=O)N(OC)c1ccccc1COc1ccn(-c2ccc(Cl)cc2)n1 [pyraclostrobin]						improve plant health e.g. to improve the tolerance to environmental stresses
